Measured values taken from patent US11890288B2, “Sulfonamide or sulfinamide compound having effect of inducing BRD4 protein degradation and pharmaceutical use thereof” (MITSUBISHI TANABE PHARMA CORPORATION, priority 2020, dated 2024).

What was measured:
[1] = tested on: human prostate cancer LNCaP cells; test: Cytotoxic action on LNCaP cells (WST-8, 96 hr); type: cell-based; conditions: 96 hr culture
Experimental: The cytotoxic action of the compound of the present invention against human cancer cells was evaluated in vitro. In this experiment, (+)-JQ1 (Nature volume 468, pages 1067-1073 (23 Dec. 2010)) known to have an inhibitory activity on the binding of BRD4 protein and a ligand therefor was used as a positive control drug. Respective cells were suspended in 10% FBS/RPMI1640, seeded in a 96 well plate and cultured at 5% CO2, 37° C. overnight. A test compound dissolved in DMSO was diluted with 10% FBS/RPMI1640 and added and the cells were further cultured for 96 hr. After culturing, the viable cell number was measured using a cell number measurement WST-8 kit (Kishida Chemical Co., Ltd.). As a control, the measurement was performed under conditions free of the test compound. The cytotoxic activity of the compound of the present invention against human prostate cancer LNCaP cells is shown in IC50 value in Table 1. The IC50 value is a concentration of the compound showing 50% cell survival rate when the cell survival rate thereof under compound untreated condition is 100%. It was calculated from the straight line connecting the cell survival rate at two points enclosing the 50% cell survival rate and the compound concentration. In addition, the cytotoxic activity against respective cancer cells of human acute myeloid leukemia MV-4-11 cell, human chronic myeloid leukemia K562 cell, human multiple myeloma MM.1S cell, human diffuse large B-cell lymphoma SU-DHL-6 cell, human T-cell leukemia Jurkat cells, human Burkitt lymphoma Raji cell, human castration-resistant prostate cancer PC-3 cell, human AR-V7 positive castration-resistant prostate cancer 22Rv1 cell, human ovarian cancer A2780 cell, human cisplatin-resistant ovarian cancer SK-OV-03 cell, human bladder cancer 5637 cell, human breast cancer ZR-75-1 cell, human triple negative breast cancer MDA-MB-231 cell, human uterus cervix cancer HeLa cell, human uterine sarcoma MES-SA cell, human stomach cancer SNU-16 cell, human non-small cell lung cancer NCI-H2126 cell, human EGFRT790M mutation-positive non-small cell lung cancer NCI-H1975 cell, human small cell lung cancer NCI-H82 cell, human large cell lung cancer NCI-H460 cell, human colon cancer HCT116 cell, human glioma U-87 MG cell, human pancreatic cancer BxPC-3 cell, human liver cancer HLF cell, human bile duct cancer HuCCT1 cell, human renal cell cancer 786-O cell, and human fibrosarcoma HT1080 cell is shown in IC50 value in Table 2.

BRD4 protein = BRD4 protein (Homo sapiens (Human), UniProt O60885); test: BRD4 protein degradation inducing action in LNCaP cells (immunofluorescence, 6 hr); type: cell-based; conditions: anti-BRD4 fluorescence intensity
Experimental: The degradation inducing action of the compound of the present invention on BRD4 proteins in cancer cells was evaluated in vitro using human prostate cancer LNCaP cells. LNCaP cells were suspended in 10% FBS/RPMI1640, seeded in a 96 well Cell carrier plate (Perkin Elmer) and cultured at 5% CO2, 37° C. overnight. A test compound dissolved in DMSO was diluted with 10% FBS/RPMI1640 and added and the cells were further cultured for 6 hr. After culturing, the cells were immobilized with 4% para-formaldehyde/PBS and further subjected to a permeation treatment with 0.25% Triton X-100/PBS. Thereafter, the cells were blocked with 10% BSA/PBS, Anti-BRD4 (Sigma-Aldrich) solution was added and the cells were incubated at 4° C. overnight. Furthermore, Goat anti-Rabbit IgG(H+L) Cross-Adsorbed Secondary Antibody, Alexa Fluor 546 (Thermo Fisher Scientific) solution, 0.5 μg/mL Hoechst 33342 (Sigma-Aldrich), and 14 μM Acti-Stain 555 Fluorescent Phalloidin (Cytoskeleton) were added. After incubation for 1 hr, BRD4 protein amount was measured by Operetta (Perkin Elmer) as fluorescence intensity (excitation: 560 nm, emission: 572 nm). The BRD4 protein degradation inducing activity of the compound of the present invention in LNCaP cells is shown in DC50 value in Table 3. The DC50 value is a concentration of the compound showing 50% fluorescence intensity when the fluorescence intensity thereof under compound untreated condition is 100%. It was calculated from the straight line connecting the fluorescence intensity at two points enclosing the 50% fluorescence intensity and the compound concentration.

Structure (SMILES) | DC50 (BRD4 protein) | IC50 [1]
COC(=O)C[C@@H]1N=C(c2ccc(-c3ccc(C(=O)NCc4ccc(S(=O)(=O)Nc5ccc(C)c6c(C#N)c[nH]c56)cc4)c(F)c3)cc2)c2c(sc(C)c2C)-n2c(C)nnc21 [Example 2, methyl [(6S)-4-{4′-[({4-[(3-cyano-4-methyl-1H-indol-7-yl)sulfamoyl]phenyl}methyl)carbamoyl]-3′-fluoro[1,1′-biphenyl]-4-yl}-2,3,9-trimethyl-6H-thieno[3,2-f][1,2,4]triazolo[4,3-a][1,4]diazepin-6-yl]acetate] | 0.23 nM | 0.35 nM
COC(=O)C[C@@H]1N=C(c2ccc(-c3ccc(C(=O)NCc4ccc(S(=O)(=O)Nc5ccc(C)c6c(C#N)c[nH]c56)cc4)c(Cl)c3)cc2)c2c(sc(C)c2C)-n2c(C)nnc21 [Example 3, methyl [(6S)-4-{3′-chloro-4′-[({4-[(3-cyano-4-methyl-1H-indol-7-yl)sulfamoyl]phenyl}methyl)carbamoyl][1,1′-biphenyl]-4-yl}-2,3,9-trimethyl-6H-thieno[3,2-f][1,2,4]triazolo[4,3-a][1,4]diazepin-6-yl]acetate] | 0.42 nM | 0.092 nM
COC(=O)C[C@@H]1N=C(c2ccc(N3CC[C@@H](C(=O)NCc4ccc(S(=O)(=O)Nc5ccc(C)c6c(C#N)c[nH]c56)cc4)C3)cc2)c2c(sc(C)c2C)-n2c(C)nnc21 [Example 4, methyl [(6S)-4-(4-{(3R)-3-[({4-[(3-cyano-4-methyl-1H-indol-7-yl)sulfamoyl]phenyl}methyl)carbamoyl]pyrrolidin-1-yl}phenyl)-2,3,9-trimethyl-6H-thieno[3,2-f][1,2,4]triazolo[4,3-a][1,4]diazepin-6-yl]acetate] | 38 nM | 16 nM
COC(=O)C[C@@H]1N=C(c2ccc(C#CC(=O)NCc3ccc(S(=O)(=O)Nc4ccc(C)c5c(C#N)c[nH]c45)cc3)cc2)c2c(sc(C)c2C)-n2c(C)nnc21 [Example 5, methyl [(6S)-4-(4-{3-[({4-[(3-cyano-4-methyl-1H-indol-7-yl)sulfamoyl]phenyl}methyl)amino]-3-oxoprop-1-yn-1-yl}phenyl)-2,3,9-trimethyl-6H-thieno[3,2-f][1,2,4]triazolo[4,3-a][1,4]diazepin-6-yl]acetate] | 15 nM | 4.1 nM
COC(=O)C[C@@H]1N=C(c2ccc(-c3ccc(C(=O)NCc4ccc(S(=O)(=O)Nc5ccc(C)c6c(Cl)c[nH]c56)cc4)cc3)cc2)c2c(sc(C)c2C)-n2c(C)nnc21 [Example 8, methyl [(6S)-4-{4′-[({4-[(3-chloro-4-methyl-1H-indol-7-yl)sulfamoyl]phenyl}methyl)carbamoyl][1,1′-biphenyl]-4-yl}-2,3,9-trimethyl-6H-thieno[3,2-f][1,2,4]triazolo[4,3-a][1,4]diazepin-6-yl]acetate] | 2.4 nM | 2.8 nM

The next lines start with results.

DC50 (BRD4 protein) | Structure (SMILES) | IC50 [1]
0.22 nM | COC(=O)C[C@@H]1N=C(c2ccc(-c3ccc(C(=O)NCc4ccc(S(=O)(=O)Nc5ccc(OC)c6c(C#N)c[nH]c56)cc4)cc3)cc2)c2c(sc(C)c2C)-n2c(C)nnc21 [Example 15, methyl [(6S)-4-{4′-[({4-[(3-cyano-4-methoxy-1H-indol-7-yl)sulfamoyl]phenyl}methyl)carbamoyl][1,1′-biphenyl]-4-yl}-2,3,9-trimethyl-6H-thieno[3,2-f][1,2,4]triazolo[4,3-a][1,4]diazepin-6-yl]acetate] | 0.28 nM
6.7 nM | COC(=O)C[C@@H]1N=C(c2ccc(C3=CCN(C(=O)NCc4ccc(S(=O)(=O)Nc5ccc(C)c6c(C#N)c[nH]c56)cc4)CC3)cc2)c2c(sc(C)c2C)-n2c(C)nnc21 [Example 21, methyl [(6S)-4-(4-{1-[({4-[(3-cyano-4-methyl-1H-indol-7-yl)sulfamoyl]phenyl}methyl)carbamoyl]-1,2,3,6-tetrahydropyridin-4-yl}phenyl)-2,3,9-trimethyl-6H-thieno[3,2-f][1,2,4]triazolo[4,3-a][1,4]diazepin-6-yl]acetate] | 9.8 nM
0.16 nM | COC(=O)C[C@@H]1N=C(c2ccc(-c3ccc(C(=O)NCc4ccc(S(=O)(=O)Nc5ccc(C)c6c(C#N)c[nH]c56)c(F)c4)cc3)cc2)c2c(sc(C)c2C)-n2c(C)nnc21 [Example 25, methyl [(6S)-4-{4′-[({4-[(3-cyano-4-methyl-1H-indol-7-yl)sulfamoyl]-3-fluorophenyl}methyl)carbamoyl][1,1′-biphenyl]-4-yl}-2,3,9-trimethyl-6H-thieno[3,2-f][1,2,4]triazolo[4,3-a][1,4]diazepin-6-yl]acetate] | 0.24 nM
0.14 nM | COC(=O)C[C@@H]1N=C(c2ccc(-c3ccc(C(=O)N[C@H](C)c4ccc(S(=O)(=O)Nc5ccc(C)c6c(C#N)c[nH]c56)cc4)cc3)cc2)c2c(sc(C)c2C)-n2c(C)nnc21 [Example 26, methyl [(6S)-4-(4′-{[(1R)-1-{4-[(3-cyano-4-methyl-1H-indol-7-yl)sulfamoyl]phenyl}ethyl]carbamoyl}[1,1′-biphenyl]-4-yl)-2,3,9-trimethyl-6H-thieno[3,2-f][1,2,4]triazolo[4,3-a][1,4]diazepin-6-yl]acetate] | 0.1 nM
5.9 nM | COC(=O)C[C@@H]1N=C(c2ccc(-c3ccc(C(=O)NCC#Cc4ccc(S(=O)(=O)Nc5ccc(C)c6c(C#N)c[nH]c56)cc4)cc3)cc2)c2c(sc(C)c2C)-n2c(C)nnc21 [Example 31, methyl [(6S)-4-{4′-[(3-{4-[(3-cyano-4-methyl-1H-indol-7-yl)sulfamoyl]phenyl}prop-2-yn-1-yl)carbamoyl][1,1′-biphenyl]-4-yl}-2,3,9-trimethyl-6H-thieno[3,2-f][1,2,4]triazolo[4,3-a][1,4]diazepin-6-yl]acetate] | 4.2 nM
0.42 nM | Cc1sc2c(c1C)C(c1ccc(-c3ccc(C(=O)NCc4ccc(S(=O)(=O)Nc5ccc(C)c6c(C#N)c[nH]c56)cc4)cc3)cc1)=N[C@@H](C)c1nnc(C)n1-2 [Example 32, N-({4-[(3-cyano-4-methyl-1H-indol-7-yl)sulfamoyl]phenyl}methyl)-4′-[(6S)-2,3,6,9-tetramethyl-6H-thieno[3,2-f][1,2,4]triazolo[4,3-a][1,4]diazepin-4-yl][1,1′-biphenyl]-4-carboxamide] | 0.69 nM
2.7 nM | COC(=O)C[C@@H]1N=C(c2ccc(-c3ccc4oc(C(=O)NCc5ccc(S(=O)(=O)Nc6ccc(C)c7c(C#N)c[nH]c67)cc5)cc4c3)cc2)c2c(sc(C)c2C)-n2c(C)nnc21 [Example 35, methyl [(6S)-4-(4-{2-[({4-[(3-cyano-4-methyl-1H-indol-7-yl)sulfamoyl]phenyl}methyl)carbamoyl]-1-benzofuran-5-yl}phenyl)-2,3,9-trimethyl-6H-thieno[3,2-f][1,2,4]triazolo[4,3-a][1,4]diazepin-6-yl]acetate] | 7.2 nM
0.41 nM | COC(=O)NC1N=C(c2ccc(-c3ccc(C(=O)NCc4ccc(S(=O)(=O)Nc5ccc(C)c6c(C#N)c[nH]c56)cc4)cc3)cc2)c2c(sc(C)c2C)-n2c(C)nnc21 (centres unmarked) [Example 36, methyl (4-{4′-[({4-[(3-cyano-4-methyl-1H-indol-7-yl)sulfamoyl]phenyl}methyl)carbamoyl][1,1′-biphenyl]-4-yl}-2,3,9-trimethyl-6H-thieno[3,2-f][1,2,4]triazolo[4,3-a][1,4]diazepin-6-yl)carbamate] | 1.4 nM
